Experimental data taken from article PMC2980575 (Analytical biochemistry, 2010).

Columns and labels:
HDAC8 [1] = target: T1, HDAC8 (Homo sapiens, UniProt Q9BY41); assay: Stopped-flow transient kinetics, c-SAHA as competitive ligand; assay type: binding; conditions: pH 7.5, read-out: koff (dissociation off-rate)
T1 sequence (Q9BY41 1-377): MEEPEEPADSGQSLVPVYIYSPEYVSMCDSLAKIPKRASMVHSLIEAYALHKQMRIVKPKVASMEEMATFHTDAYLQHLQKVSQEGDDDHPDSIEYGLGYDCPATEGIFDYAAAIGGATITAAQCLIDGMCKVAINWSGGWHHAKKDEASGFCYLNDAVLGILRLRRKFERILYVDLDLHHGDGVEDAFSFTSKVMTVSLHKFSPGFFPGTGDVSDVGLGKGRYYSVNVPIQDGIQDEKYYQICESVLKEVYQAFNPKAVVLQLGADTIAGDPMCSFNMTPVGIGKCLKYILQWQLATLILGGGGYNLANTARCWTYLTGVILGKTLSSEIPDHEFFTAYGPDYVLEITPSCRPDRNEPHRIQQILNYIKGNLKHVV

HDAC8 [2] = target: T1, HDAC8; assay: Fluorescence displacement method with c-SAHA as probe, Dynafit analysis
HDAC8 [3] = target: T1, HDAC8; assay: Trypsin-coupled steady-state kinetic assay with Fluor de Lys substrate; assay type: biochemical
HDAC8 [4] = target: T1, HDAC8; assay: Direct fluorescence titration of c-SAHA with HDAC8; assay type: binding

Row | Structure (SMILES) | koff (HDAC8 [1]) [s⁻¹] | Kd (HDAC8 [2]) [nM] | Ki (HDAC8 [3]) [nM] | Kd (HDAC8 [4]) [nM] | Ki of c-SAHA lower than that of parent compound SAHA (HDAC8 [3]; steady-state kinetic data, c-SAHA versus SAHA)
1 | CN(C)c1ccc(C(=O)NCCCCCCC(=O)NO)cc1 [M344, 4-Dimethylamino-N-(6-hydroxycarbamoylhexyl)-benzamide] | 1.05 ± 0.12 | 320 ± 90 | 180 ± 20 |  | 
2 | Cc1cc(=O)oc2cc(NC(=O)CCCCCCC(=O)NO)ccc12 [c-SAHA, N^1-hydroxy-N^8-(4-methyl-2-oxo-2H-chromen-7-yl)octanediamide] |  |  | 160 | 160 ± 20 | about 5 fold
